This note sets out measurements from PubChem BioAssay (NCI).

Several values for one entry are separate records, joined by “and”; a condition that tells them apart may be missing. Equal entries are not always repeated.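 Grown in 96-well plates, cells were treated for 48 hours with each compound at five concentrations. Insufficient inhibition: endpoint recorded as highest concentration tested. Abbreviation: GI50, concentration required for 50% inhibition of growth. TGI is the concentration that stops growth completely.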

Among the test systems are SNB-75 CNS; A549 NSCLC; HOP-62 NSCLC; SK-MEL-2 melanoma; SN12C renal; HT29 colon; HCT-15 colon; DU-145 prostate; MALME-3M melanoma; SR leukemia.
Holding throughout (assay): inhibition of tumour cell growth, NCI panel, 48 h

`C/C(=N\NC(=S)N(C)C)c1ccccn1`: the TGI in the assay with SNB-75 CNS was determined as 14.4 µM; in the assay on A549 NSCLC, 14.3 µM; in the assay with HOP-62 NSCLC, 12.4 µM; in the assay on SK-MEL-2 melanoma, 27.2 µM; with SN12C renal, 11.2 µM; in the assay with HT29 colon it was 15.8 µM. The TGI is 16.6 µM with HCT-15 colon; 0.993 µM and 3.17 µM in the assay on DU-145 prostate. Besides, the GI50 in the assay on HOP-62 NSCLC was 0.0203 µM; in the assay on SK-MEL-2 melanoma, 0.624 µM; with SN12C renal, 0.0436 µM; in the assay on HT29 colon it was 0.000846 µM; with HCT-15 colon, 0.00191 µM; in the assay on MALME-3M melanoma it was 0.00639 µM. Moreover, in the assay with SR leukemia, the GI50 was 0.00132 µM.
Turning to `CCN(CC)c1ccc(/C=C/C=C2\NC(=O)NC2=O)cc1`, the GI50 in the assay on SNB-75 CNS is 2.67 µM; in the assay on A549 NSCLC, 3.69 µM; in the assay with HOP-62 NSCLC, 3.64 µM; with SK-MEL-2 melanoma, 3.5 µM; with SN12C renal, 9.41 µM; in the assay with HT29 colon, 1.82 µM. Also, the GI50 with HCT-15 colon was 2.31 µM; with DU-145 prostate, 3.36 µM; in the assay with MALME-3M melanoma, 28.7 µM; with SR leukemia, 0.446 µM. The TGI in the assay with SNB-75 CNS was 79.5 µM; in the assay with A549 NSCLC, 32.7 µM; with HOP-62 NSCLC it was over 100 µM; with SK-MEL-2 melanoma, 53.6 µM; with SN12C renal it was over 100 µM; with HT29 colon, 9.25 µM. The TGI is over 100 µM in the assay with HCT-15 colon, 25.4 µM in the assay on DU-145 prostate, over 100 µM with MALME-3M melanoma and over 100 µM in the assay with SR leukemia.
Turning to `Oc1c(CN2CCN(c3ccccc3)CC2)cc(Br)c2cccnc12`, the TGI in the assay with SNB-75 CNS is 18.1 µM; in the assay with A549 NSCLC, over 100 µM; in the assay on HOP-62 NSCLC, 15.2 µM; with SK-MEL-2 melanoma it was 42 µM; with SN12C renal, over 37.6 µM; with HT29 colon, over 95.8 µM. Moreover, the TGI is over 100 µM in the assay on HCT-15 colon, 13.8 µM with DU-145 prostate, 42.2 µM with MALME-3M melanoma and 2.25 µM with SR leukemia.
Regarding `O=c1oc2c(C(F)(F)F)cccc2cc1-c1csc(Nc2ccc(OCCF)cc2)n1`, the GI50 with SNB-75 CNS was 0.0302 µM; in the assay with A549 NSCLC it was 0.0391 µM; with HOP-62 NSCLC it was 0.0378 µM; in the assay on SK-MEL-2 melanoma it was 0.0593 µM; in the assay on SN12C renal, 0.271 µM; with HT29 colon, 0.032 µM. For the same compound, the GI50 with HCT-15 colon is 0.0389 µM; in the assay with DU-145 prostate, 0.0462 µM; with MALME-3M melanoma, 6.48 µM; in the assay with SR leukemia it was 0.0383 µM. Besides, the TGI in the assay on SNB-75 CNS was 12 µM; in the assay with A549 NSCLC it was 18.8 µM; in the assay with HOP-62 NSCLC, over 36.8 µM; with SK-MEL-2 melanoma, over 39.9 µM; in the assay on SN12C renal, over 64.4 µM; in the assay on HT29 colon it was 1.02 µM. In addition, the TGI is over 100 µM in the assay on HCT-15 colon, over 50.8 µM in the assay with DU-145 prostate, over 91.7 µM with MALME-3M melanoma and over 43.6 µM with SR leukemia.
On to `O=C1C(Cl)=C(Nc2cccc(C(F)(F)F)c2)C(=O)N1Cc1ccc(Cl)cc1`, for which the GI50 in the assay on SNB-75 CNS was 1.07 µM; in the assay with A549 NSCLC, 1.13 µM; with HOP-62 NSCLC it was 0.835 µM; in the assay with SK-MEL-2 melanoma, 4.02 µM; with SN12C renal it was 0.545 µM; in the assay with HT29 colon, 0.595 µM. Moreover, the GI50 in the assay with HCT-15 colon was 0.166 µM; in the assay on DU-145 prostate, 1.13 µM; in the assay with MALME-3M melanoma, under 0.0488 µM; in the assay on SR leukemia it was under 0.0219 µM. Besides, the TGI in the assay on SNB-75 CNS was 20 µM; in the assay with A549 NSCLC, 16.9 µM; in the assay on HOP-62 NSCLC it was 17.4 µM; in the assay with SK-MEL-2 melanoma it was over 25.9 µM; in the assay with SN12C renal, 10.7 µM; with HT29 colon it was 24.9 µM. In addition, the TGI in the assay on HCT-15 colon is 12.5 µM; in the assay on DU-145 prostate, 7.92 µM; in the assay with MALME-3M melanoma, 0.741 µM; in the assay with SR leukemia it was over 65.3 µM.
For `Cn1cc(C2=C(N3CCOCC3)C(=O)NC2=O)c2ccccc21`, the GI50 in the assay with SNB-75 CNS, with A549 NSCLC, with HOP-62 NSCLC, in the assay with SK-MEL-2 melanoma, in the assay on SN12C renal and with HT29 colon was over 25 µM throughout. The GI50 in the assay with HCT-15 colon, in the assay on DU-145 prostate, in the assay with MALME-3M melanoma and in the assay on SR leukemia was over 25 µM each time. Besides, the TGI in the assay with SNB-75 CNS, with A549 NSCLC, with HOP-62 NSCLC, with SK-MEL-2 melanoma, in the assay on SN12C renal and with HT29 colon was over 25 µM in each case. Also, the TGI in the assay with HCT-15 colon, in the assay on DU-145 prostate, in the assay with MALME-3M melanoma and in the assay with SR leukemia was over 25 µM in each case.
As for `CN(C)CCCn1c(-c2nonc2N)nc2cnccc21`, the GI50 is 8.06 µM in the assay on SNB-75 CNS; over 25 µM in the assay with A549 NSCLC; over 25 µM in the assay with HOP-62 NSCLC; over 25 µM in the assay with SK-MEL-2 melanoma; over 25 µM in the assay with SN12C renal; over 25 µM in the assay on HT29 colon. In addition, the GI50 with HCT-15 colon, in the assay on DU-145 prostate, in the assay on MALME-3M melanoma and with SR leukemia was over 25 µM in each case. Moreover, the TGI in the assay with SNB-75 CNS, in the assay on A549 NSCLC, with HOP-62 NSCLC, in the assay with SK-MEL-2 melanoma, with SN12C renal and in the assay with HT29 colon was over 25 µM each time. Moreover, the TGI with HCT-15 colon, with DU-145 prostate, in the assay on MALME-3M melanoma and with SR leukemia was over 25 µM each time.
Regarding `COc1ccc(Cn2cc3c(c2-c2cc(OC)c(OC)c(OC)c2)CCc2cnoc2-3)cc1`, the GI50 in the assay on SNB-75 CNS is 0.147 µM; with A549 NSCLC, 0.372 µM; with HOP-62 NSCLC, 0.446 µM; in the assay with SK-MEL-2 melanoma, 3.24 µM; in the assay on SN12C renal it was 0.715 µM; with HT29 colon, 0.335 µM. Further, the GI50 is 0.354 µM with HCT-15 colon, 0.309 µM with DU-145 prostate, 0.239 µM in the assay with MALME-3M melanoma and 0.175 µM in the assay on SR leukemia. The TGI is 0.746 µM in the assay with SNB-75 CNS; over 100 µM in the assay on A549 NSCLC; over 100 µM with HOP-62 NSCLC; over 100 µM in the assay on SK-MEL-2 melanoma; over 100 µM with SN12C renal; 10.3 µM with HT29 colon. The TGI is over 100 µM in the assay with HCT-15 colon, over 100 µM in the assay with DU-145 prostate, over 100 µM with MALME-3M melanoma and 1.42 µM with SR leukemia.
